Laboratory results published in PMC9569971, “New Oxazolo[5,4-d]pyrimidines as Potential Anticancer Agents: Their Design, Synthesis, and In Vitro Biological Activity Research” (International Journal of Molecular Sciences, 2022).
“Also recorded” adds a separate entry of the source. Read-outs that look alike come from different tables or passages of the source.

Columns and labels:
[1] = MTT viability assay, L929; format: cell-based, murine; details: mouse, L929 fibroblasts, tested 1–500 µM
Description: (§1) When the confluence was greater than 70%, adherent cell lines were detached from the bottle surface with a TrypLE solution and then used in assays or reduced. The cells were collected into centrifuge tubes and centrifuged at 1000× g for 5 min at room temperature. The supernatant was removed to dry. The cell pellets were then resuspended in an appropriate medium. The cells were counted using a Bürker chamber and resuspended in 96-well plates to a cell density of 10,000 cells per well for MTT assay. For the rhodamine accumulation test and the detection of apoptosis assay, cells were seeded at a density of 30,000 per well. In the migration assay, cells were seeded at a density of 20,000 per well, and monolayer formation was awaited.
(§2) In this study, normal human dermal fibroblasts (NHDFs), breast cancer cells (MCF7), human lung adenocarcinoma cells (A549), murine fibroblasts (L929), colon adenocarcinoma cells (HT29), and colorectal adenocarcinoma cells (LoVo) were used. All cell lines were cultured in the recommended media. […] The human lung adenocarcinoma cell line A549 and breast cancer cell line MCF-7 were obtained from the ECACC. These cell lines were cultured in Eagle’s minimal essential medium (MEM). Murine fibroblast L929 (Sigma-Aldrich, Merck Group, Headquarters, Darmstadt, Germany; the European Collection of Authenticated Cell Cultures—ECACC) cells were grown in DMEM. […] All media were supplemented with 10% FBS and 100 µg/mL of penicillin–streptomycin.
(§3) All compounds were dissolved in DMSO and the reference drugs were dissolved in physiological saline to concentrations of 10 mM. Concentrations from 1 to 500 μM in the media recommended for the cell lines were prepared for the tests.
(§4) All of the synthesized derivatives were evaluated via the MTT assay. All cell lines were seeded into 96-well plates at a density of 10,000 cells per well. To allow the cells to adhere to the surface of the plates, they were incubated overnight before the application of the test compounds. […] The tests were performed for concentrations of 1, 5, 10, 25, 50, 100, 250, and 500 μM. The solutions of the test compounds were removed from the culture on the 96-well plates. […] The supernatant was then removed. The violet crystal was dissolved in isopropanol for 30 min by shaking. Absorbance was measured at 570 nm.
(§5) Biological assays were performed in three independent replicates, and each replicate used four samples. Three repetitions were made for the ELISA determinations. For the assessment of cytotoxicity, mathematical models were developed using the GraphPad PRISM software, based on which CC50 was determined. The values of CC50 were estimated based on nonlinear regression using the dependence of the biological effect on the molar concentrations of the compounds (four-parameter logistic model with Hill slope).

[2] = MTT viability assay, NHDF; format: cell-based, human; details: human, normal human dermal fibroblasts (NHDF), tested 1–500 µM
Description: as §1, §2, §3, §4, §5

[3] = system: lung adenocarcinoma (A549); experiment: MTT viability assay, A549; format: cell-based, human; details: for SI (selectivity index): CC50 NHDF / CC50 A549; for CC50: Homo sapiens
Description: as §1, §2, §3, §4, §5

[4] = system: breast adenocarcinoma (MCF7); experiment: MTT viability assay, MCF7; format: cell-based, human; details: for SI (selectivity index): CC50 NHDF / CC50 MCF7; for CC50: Homo sapiens, MCF7, MTT, tested 1–500 µM
Description: as §1, §2, §3, §4, §5

[5] = system: metastatic colon adenocarcinoma (LoVo); experiment: MTT viability assay, LoVo; format: cell-based, human; details: for SI (selectivity index): CC50 NHDF / CC50 LoVo; for CC50: Homo sapiens, LoVo, MTT, tested 1–500 µM
Description: as §1, §2, §3, §4, §5

[6] = system: primary colon adenocarcinoma (HT29); experiment: MTT viability assay, HT29; format: cell-based, human; details: for SI (selectivity index): CC50 NHDF / CC50 HT29; for CC50: tested 1–500 µM
Description: as §1, §2, §3, §4, §5

[7] = system: HT29 primary colon adenocarcinoma cells; experiment: Detection of apoptosis (Annexin V FITC / propidium iodide); format: cell-based, human; set-up: unit not given here; details: 24 h
Description: as §1, with “All cell lines were grown in 5% CO2 at 95% humidity and 37 °C, with both morphology and confluence assessed twice per week. When” for “When”
HT29 primary colon adenocarcinoma cells were grown in 96-well plates for 24 h. The 5 selected derivatives were added at concentrations of 1, 2, 5, and 10 µM, and then incubated for 24 h. The mixture of Annexin V conjugated with fluorescein and propidium iodide in PBS with Mg^2+ and Ca^2+ ions (Thermo Fisher Scientific, Waltham, MA, USA) was then applied. The incubation lasted 20 min at 37 °C. Pictures were taken using a fluorescence microscope. Thirteen images were taken from each well using an EVOS FL fluorescence microscope, with three replications for each compound. The open ImageJ space was used to analyze the number of cells. The Thermo Fisher Dead Cell Apoptosis Kit with Annexin V FITC and Propidium Iodide (PI) detects phosphatidylserine extrusion in apoptotic cells using Annexin V conjugated with a green fluorescent FITC dye and dead cells stained by PI with red fluorescence.

[8] = system: HT29 cells; experiment: Migration (scratch) assay; format: cell-based, human; details: control T 155558.2, control T0 544366.45
Description: The scratch test was performed to verify that the tested compound 3g could inhibit the formation of metastases by the HT29 cell line. The seeded HT29 cells were incubated until they formed a monolayer over the entire surface of the well. Then, a scratch test was performed by making a scratch in the monolayer and measuring its width—that is, To, amounting to 544,366.45 μm^2. Freshly prepared compounds were added to the HT29 cells at concentrations of 10, 25, 50, and 100 μM. Breeding plates were incubated for 24 h. The next day, scratch width was measured again using the ImageJ open-source platform. […] The lowest cellular overgrowth of HT29 culture occurred at the concentration of 100 μM for the compound. Compound 3g inhibited the migration of HT29 cells more strongly than the reference drugs, showing that it has the potential to inhibit metastasis. The width of the scratch after 24 h when no compound was applied to the cells was used as a control (T = 155,558.2 μm^2).
as §1, with “All cell lines were grown in 5% CO2 at 95% humidity and 37 °C, with both morphology and confluence assessed twice per week. When” for “When”
After seeding, HT29 cells were incubated until they formed a monolayer over the entire surface of the well. A scratch was made on the surface overgrown with cells, and then photomicrographs of the scratch were taken using the EVOS FL microscope. The freshly prepared compound 3g and the reference drugs were added at concentrations of 10, 25, 50, and 100 µM. Then, they were incubated for 24 h, and micrographs were performed at that time using the EVOS FL microscope. The scratch width was measured using the ImageJ open-source platform. The measurement of scratch width was also performed after 24 h without adding compounds.

[9] = system: normal human dermal fibroblasts (NHDF); experiment: MTT viability assay, NHDF; format: cell-based; details: tested 1–500 µM
Description: as §1, §2, §3, §4, §5

[10] = system: A549; details: cited from earlier work
[11] = system: HT29; details: ref 70; cited from earlier work

SMILES	CC50 [1]	CC50 [2]	SI (selectivity index) [4]	CC50 [4]	SI (selectivity index) [6]	CC50 ([6]; Homo sapiens, HT-29, HT29, MTT)	apoptosis mean ([7]; 1 μM)	late apoptosis mean ([7]; 1 μM)	necrosis mean ([7]; 1 μM)	percent live (viable) cells ([7]; 1 μM)	apoptosis mean ([7]; 2 μM)	late apoptosis mean ([7]; 2 μM)	necrosis mean ([7]; 2 μM)	percent live (viable) cells ([7]; 2 μM)	apoptosis mean ([7]; 5 μM)	late apoptosis mean ([7]; 5 μM)	necrosis mean ([7]; 5 μM)	percent live (viable) cells ([7]; 5 μM)	apoptosis mean ([7]; 10 μM)	late apoptosis mean ([7]; 10 μM)	further results
O=c1[nH]cc(F)c(=O)[nH]1 [Compound 5-FU, 5-fluorouracil, reference compound]	38.1 ± 7.13 µM	20.4 ± 2.97 µM	0.094	217 ± 20 µM	0.053	381 µM	7.92	31.72	10.48	59.77	10.65	28.91	8.86	63.94	10.75	33.06	8.39	60.16	3.81	16.02	SI (selectivity index) [3]: 0.076; CC50 ([3]; A549, MTT, tested 1–500 µM): 269 ± 17.2 µM; SI (selectivity index) [5]: 0.282; CC50 ([6]; HT29, MTT): 381 ± 25.5 µM; necrosis mean ([7]; 10 μM): 34.82; percent live (viable) cells ([7]; 10 μM): 55.23; scratch width after 24 h, mean ([8]; 10 μM): 155098.248 μm^2; scratch width after 24 h, mean ([8]; 25 μM): 192391.405 μm^2; scratch width after 24 h, mean ([8]; 50 μM): 198312.887 μm^2; scratch width after 24 h, mean ([8]; 100 μM): 282974.4 μm^2
Cc1noc(N)c1-c1nc2c(NCCN(C)C)ncnc2o1 [Compound 3f, 2-(5-Amino-3-methylisoxazol-4-yl)-7-N-[2-(N,N-dimethylamino)ethyl]aminooxazolo[5,4-d]pyrimidine]	207 ± 16.5 µM	172 ± 20.7 µM	0.881	195 ± 12 µM	1.124	153 ± 15 µM	7.07	3.15	0.16	89.62	3.08	7.34	5.76	83.82	6.76	12.74	5.73	74.77	18.64	6.51	SI (selectivity index) [3]: 1.161; CC50 ([3]; A549, MTT, tested 1–500 µM): 148 ± 13.8 µM; SI (selectivity index) [5]: 0.729; CC50 [5]: 235 ± 13 µM; necrosis mean ([7]; 10 μM): 2.78; percent live (viable) cells ([7]; 10 μM): 72.06
Cc1noc(N)c1-c1nc2c(NCCN3CCOCC3)ncnc2o1 [Compound 3j, 2-(5-Amino-3-methylisoxazol-4-yl)-7-N-[2-(morpholin-4-yl)ethyl]aminooxazolo[5,4-d]pyrimidine]	52.9 ± 9.51 µM	–	>>1	197 ± 13.1 µM	>>1	99.9 ± 10.9 µM	5.45	29.25	8.01	57.30	8.18	26.44	3.92	61.47	8.28	30.59	3.45	57.69	1.34	13.55	CC50 ± SD [9]: no toxicity at all; also recorded: Non-toxic; necrosis mean ([7]; 10 μM): 32.35; percent live (viable) cells ([7]; 10 μM): 52.76
COc1cc2nccc(Oc3ccc(NC(=O)NC4CC4)c(Cl)c3)c2cc1C(N)=O [Lenvatinib]	–	–	–	–	–	–	–	–	–	–	–	–	–	–	–	–	–	–	–	–	IC50 ([10]; listed as lenvatinib): almost no effect; IC50 ([10]; ref 69): No effect ^f; IC50 [11]: 431 µM
CCCNc1ncnc2oc(-c3c(C)noc3N)nc12 [Compound 3c, 2-(5-Amino-3-methylisoxazol-4-yl)-7-N-propylaminooxazolo[5,4-d]pyrimidine]	90.6 ± 8.75 µM	172 ± 14.5 µM	0.862	199 ± 16.1 µM	0.766	224 ± 23.1 µM	–	–	–	–	–	–	–	–	–	–	–	–	–	–	CC50 ± SD ([3]; A549, MTT, tested 1–500 µM): no activity; melting point: 220 to 221 °C (dec.)
CCCCCNc1ncnc2oc(-c3c(C)noc3N)nc12 [Compound 3e, 2-(5-Amino-3-methylisoxazol-4-yl)-7-N-pentylaminooxazolo[5,4-d]pyrimidine]	89.2 ± 6.04 µM	125 ± 11.5 µM	0.804	155 ± 15.5 µM	0.963	129 ± 10 µM	6.20	11.11	4.53	78.17	4.33	12.44	9.43	73.80	5.40	18.31	10.22	66.07	4.05	22.59	SI (selectivity index) [3]: 0.999; CC50 ([3]; A549, MTT, tested 1–500 µM): 125 ± 12.1 µM; SI (selectivity index) [5]: 0.702; CC50 [5]: 178 ± 6.65 µM; necrosis mean ([7]; 10 μM): 20.74; percent live (viable) cells ([7]; 10 μM): 52.63
